Experimental data taken from patent US20140314882A1, “Synergistic Combination Therapy” (President and Fellows of Harvard College, priority 2009, published 2014).

Tested on: S. cerevisiae cells (strain BY4741)
Test: concentration matrix drug synergy test on S. cerevisiae growth (OD595 growth curves)

| SMILES | effect on yeast growth |
| --- | --- |
| C/C1=C/C(=O)O[C@@H]2C[C@@H](CC[C@H](C)/C=C\CC1)O[C@@](O)([C@@H]1CSC(=O)N1)C2 [latrunculin B] | only mildly reduced yeast growth |
| C=CC[C@@H]1/C=C(\C)C[C@H](C)C[C@H](OC)[C@H]2O[C@@](O)(C(=O)C(=O)N3CCCC[C@H]3C(=O)O[C@H](/C(C)=C/[C@@H]3CC[C@@H](O)[C@H](OC)C3)[C@H](C)[C@@H](O)CC1=O)[C@H](C)C[C@@H]2OC [tacrolimus] | only mildly reduced yeast growth |
